Source: patent US20230416785A1, “NUCLEASE AND APPLICATION THEREOF” (CRISP-HR Therapeutics, Inc., priority 2020, published 2023)
“Also recorded” adds a separate entry of the source.

Experiments:
[1] = system: endogenous H2B; assay: H2B-mNeon knock-in HDR quantification in K562 cells; type: cell-based, human; details: H2B-mNeon RT, genome specific plus RT specific primers
Protocol: After two days, cells were fixed in 4% PFA washed in PBS, then directly imaged, with cells showing nuclear localized fluorescence counted as successful HDR events.
K562 were grown in 24 well plates with RPMI-1640 supplemented with 5% FBS until roughly 70% confluent. At that time cells were either electroporated using the mNeon system (Invitrogen) using optimized settings for K562 cells, or lipofectamine 3000 again following manufactures instructions. Cells were then returned to 24 well plates with fresh media and grown for at least two days before being used in downstream analysis.
After 2 days, cells attached to coverslips coated with 0.01% poly-1-lysine, and were fixed in 4% PFA (Thermofisher) for 15 minutes at RT. After fixation, cells were washed 3× in PBS, mounted in 50% glycerol and imaged on a Nikon Eclipse E600 with standard FITC filters. For quantification, random patches of cells (usually between 8-15 cells per image) were identified via Brightfield, then fluoresce images were taken with constant illumination and exposure time (100%, and 110 ms respectively).

[2] = system: A549 cells; assay: Cellular toxicity / viability of transfected A549 cells (resazurin assay); type: cell-based
Protocol: A549 cells were chosen as they are both facile to grow and transfect, cost effective in terms of media and other reagents, and importantly have retained a functional p53 gene.
Cells were then allowed to recover for one additional day, after which viability was cells were incubated with resazurin (Millipore Sigma) for 4 hours, after which fluorescence was quantified by a plate reader (Perkin Elmer).
Unless otherwise noted, adherent cells (A549 or H1299) were seeded in 96 well plates and grown in either 50/50 F-12/DMEM or RPMI-1640 respectively, supplemented with 5% FBS and grown to roughly 70% confluency. Cells were then transfected with either Cal-Phos as described in Chen 2012 or Lipofectamine 3000 (Thermofisher). Fresh media was exchanged the next day and cellular viability was quantified on day 2.
(§1) 20 μL of 0.15 mg/mL Resazurin solution was added to cells either plated in 96 well plates for all cell lines, which were then incubated for ˜4 hours at 37° C. Cellular toxicity was quantified using a Tecan SpectraFlour Plus plate reader (Tecan) using a 535/595 filter set. Raw data was then normalized to the mean of the untransfected controls and plotted as described.
as §1, with “described. […] Stats: All two-sided students T-test with unequal variance.” for “described.”

[3] = system: HBB amplicon; assay: In-vitro exonuclease assay with purified proteins; type: biochemical, human; details: 30 nM protein, 3 nM HBB amplicon, 37° C., 60 minutes
Protocol: Reactions were then electrophoresed and visualized on an agarose gel. FIG. 5C illustrates quantification of exonuclease activity. Quantification of exonuclease activity assayed in FIG. 5B. 3 replicates were performed for each reaction and were quantified via FIJI (ImageJ) and then normalized to control amplicon levels.
Reactions were then electrophoresed and visualized on an agarose gel.
DNA was isolated from wildtype K562 cells, and amplified using standard Taq DNA polymerase and HBB-out-F (5′-[…]-3′ (SEQ ID NO: 125)) and HBB-out-R (5′-[…]-3′ (SEQ ID NO: 126)), Tm=56 for 35 cycles, and purified using the Qiagen PCR cleanup kit. […] The samples were then electrophoresed on a standard 1% TAE agarose gel stained with gel green.

[4] = system: A549 cells; assay: Pifithrin-α treatment of A549 cells transfected with Cas9 or Cas9-HR, resazurin viability; type: cell-based, human
Protocol: as §1

Cas9-HR 4: hExo1(1-352)-Cas9 fusion of FIG. 1A; E. coli codon optimized vector SEQ ID NO: 67
PCR of 5′ and 3′ knock-in junctions [1]: Successful amplification
cellular toxicity ([2]; Int-G2 and Int-G3, CalPhos): dramatic reduction in cellular toxicity
toxicity targeting G-2 rather than G-3 ([2]; Int-G2 vs Int-G3): significantly more toxicity
reduction in cellular toxicity compared to Cas9 or Cas9+hExo1 ([2]; targeting HBB-G3): greatest reduction
exonuclease activity (reduction of full length HBB amplicon) [3]: did not show Exonuclease activity; also recorded: no significant activity

Cc1ccc(C(=O)Cn2c3c(sc2=N)CCCC3)cc1 [Pifithrin-α]
cellular viability over a dilution series ([4]; 10 nM-10 μM Pifithrin-α, A549 cells transfected with Cas9): dose dependent response in cellular viability; also recorded: decreasing levels of toxicity with increasing concentrations; also recorded: Dose dependent increases in cellular viability
effect on viability / Cas9 mediated toxicity compared to DMSO ([4]; 10 μM Pifithrin-α, A549 cells transfected with Cas9): reduces Cas9 mediated cellular toxicity; also recorded: statistically significant (p<0.001) increase in viability; also recorded: increase in cellular viability
effect on viability / toxicity compared to DMSO ([4]; 10 μM Pifithrin-α, A549 cells transfected with Cas9-HR 8): does not affect cellular toxicity; also recorded: no significant change in cellular viability; also recorded: no effect
increase in cellular viability compared to DMSO ([4]; 10 μM Pifithrin-α, A549 cells transfected with Cas9, two days): ~2 fold
